Experimental findings from patent US10399931B2, “Octahydroanthracene compound, preparation method and application thereof” (SHANDONG XINHUA PHARMACEUTICAL CO., LTD., priority 2016, dated 2019) are described below.

Read-outs that look alike come from different tables or passages of the source.

Assay [1] has as its system Human leukemia HL60 cells. Nature of the assay: MTT assay, proliferation of human leukemia HL60 cells. The class given is cell-based. The following applies: Homo sapiens, HL-60, 48 h, read-out: Inhibitive rate (%) against HL60 cells. On the procedure: (§1) The survival rate of cells was determined by MTT assay, which is based on the metabolic reduction of 3-(4,5-dimethyl-2thiahiazoyl)-3,5-di-phenyl-tetrazolium bromide (MTT) by viable cells. MTT is a yellow compound, a dye that accepts hydrogen ion, which can act on the respiratory chain in the mitochondria of viable cells. Under the action of succinate dehydrogenase and cytochrome C, the tetrazolium ring was cleaved to form blue Formazan crystals, and the amount of Formazan crystals generated was only proportional to the number of the viable cells. The enzymes disappeared in dead cells, so Formazan crystals could not be dissolved in MTT solution containing 20% sodium dodecyl sulfate (pH 4.7).
(§2) The cells in the logarithmic growth phase were selected and adjusted to an appropriate cell density, seeded in a 96-well plate, 100 μl/well, and cultured in a 37° C., 5% CO2 incubator. The cells were allowed to adhere overnight, then the culture medium was replaced and the drug was added to cultivate for 48 h. A blank control group, a drug administration group and a positive control group were set, with four repeats in each group.
(§3) After 48 h of drug treatment, the cells were incubated with 0.25 mg/ml MTT at 37° C. for 3-4 h, and 100 μl of dimethyl sulfoxide (DMSO) was added to each well after aspirating the culture solution.
(Tetrazolium dyes change colour on reduction, which living cells bring about.)

Assay [2] concerns Human cutaneous T-cell lymphoma Hut102 cells. Nature of the assay: MTT assay, proliferation of human cutaneous T-cell lymphoma Hut102 cells. The class given is cell-based. The procedure:
as §1, §2, §3

A further assay relates to APP/PS1 transgenic mice. Description: Nesting experiment. The class given is in vivo. As to conditions: at 12 h. An excerpt:
Each mouse was separately housed in a cage. On the first day of the test, two pieces of cotton (5 cm×5 cm) were placed in the cage. […]

Setting [3] is: HuT-102, 10 μM, Mean ± SE, read-out: Inhibitive rate (%) against Hut102 cells.

In the case of `CCN(CC)CCNC(=O)c1ccc(C(=O)Nc2c3c(cc4c2C(C)(C)CCC4(C)C)C(C)(C)CCC3(C)C)cc1` [OAA-5, N-[2-(N,N-diethylamino)]ethyl-4-[(1,1,4,4,5,5,8,8-octamethyl-1,2,3,4,5,6,7,8-octahydro-9-anthryl)carbamoyl] benzamide], the inhibition at 10 µM in assay [1] (10 μM, 48 h, Mean ± SE) turned out to be 16.6 ± 1.43%; in assay [2] (setting [3]) it was 27.7 ± 2.38%.
For `CN(C)CCNC(=O)c1ccc(C(=O)Nc2c3c(cc4c2C(C)(C)CCC4(C)C)C(C)(C)CCC3(C)C)cc1` [OAA-7, N-[2-(N,N-dimethylamino)]ethyl-4-[(1,1,4,4,5,5,8,8-octamethyl-1,2,3,4,5,6,7,8-octahydro-9-anthryl)carbamoyl] benzamide], in that order: 10.8 ± 0.69% and 8.34 ± 4.37%.
The corresponding values for `CC1(C)CCC(C)(C)c2c1cc1c(c2NC(=O)c2ccc(N(S(C)(=O)=O)S(C)(=O)=O)cc2)C(C)(C)CCC1(C)C` [OAB-5, N,N-dimethylsulfonyl-4-[(1,1,4,4,5,5,8,8-octamethyl-1,2,3,4,5,6,7,8-octahydro-9-anthryl)carbamoyl] aniline] are 42.3 ± 1.05% and 29.1 ± 1.39%.
The corresponding values for `CC1(C)CCC(C)(C)c2c1cc1c(c2NC(=O)c2ccc(C(=O)O)cc2)C(C)(C)CCC1(C)C` [OAA-2, 4-[(1,1,4,4,5,5,8,8-octamethyl-1,2,3,4,5,6,7,8-octahydro-9-anthryl)carbamoyl] benzoic Acid] are 3.06 ± 2.23% and -3.63 ± 1.07%.
On to `CC1(C)CCC(C)(C)c2c1cc1c(c2NC(=O)c2ccc(NC(=O)ON)cc2)C(C)(C)CCC1(C)C` [OAB-16, 4-[(1,1,4,4,5,5,8,8-octamethyl-1,2,3,4,5,6,7,8-octahydro-9-anthryl)carbamoyl] phenyl Carbamic Acid-O-Amino Ester], for which the inhibition at 10 µM worked out at 1.67 ± 3.24% in assay [1] (10 μM, 48 h, Mean ± SE) and 8.38 ± 2.31% in assay [2] (setting [3]).
As for `CC1(C)CCC(C)(C)c2c1cc1c(c2NC(=O)c2ccc(NC(=O)NCCCC(=O)O)cc2)C(C)(C)CCC1(C)C` [OAB-7, 1-(4-carboxypropyl)-3-{4-[(1,1,4,4,5,5,8,8-octamethyl-1,2,3,4,5,6,7,8-octahydro-9-anthryl)carbamoyl]phenyl} urea], the inhibition at 10 µM is 1.76 ± 1.41% in assay [1] (10 μM, 48 h, Mean ± SE) and 5.6 ± 3% in assay [2] (setting [3]).
Regarding `COc1cc2c(cc1OC)C(=O)C(CC1CCN(Cc3ccccc3)CC1)C2` (centres unmarked) [donepezil, reference compound], the “Nesting ability vs model group” value in the assay on APP/PS1 transgenic mice was “significantly increased”.
For `COC(=O)c1ccc(C(=O)Nc2c3c(cc4c2C(C)(C)CCC4(C)C)C(C)(C)CCC3(C)C)cc1` [OAA-1, 4-[(1,1,4,4,5,5,8,8-octamethyl-1,2,3,4,5,6,7,8-octahydro-9-anthryl)carbamoyl] methyl Benzoate], the inhibition at 10 µM amounted to 8.27 ± 1.57% in assay [1] (10 μM, 48 h, Mean ± SE) and 7.11 ± 1.06% in assay [2] (setting [3]).
Regarding `COC(=O)Nc1ccc(C(=O)Nc2c3c(cc4c2C(C)(C)CCC4(C)C)C(C)(C)CCC3(C)C)cc1` [OAB-8, 4-[(1,1,4,4,5,5,8,8-octamethyl-1,2,3,4,5,6,7,8-octahydro-9-anthryl)carbamoyl] methyl Phenylcarbamate], the inhibition at 10 µM in assay [1] (10 μM, 48 h, Mean ± SE) was 7.24 ± 4.74%; in assay [2] (setting [3]) it was -1.05 ± 3.08%.
The corresponding values for `CC1(C)CCC(C)(C)c2c1cc1c(c2NC(=O)c2ccc(NC(=O)N3CCOCC3)cc2)C(C)(C)CCC1(C)C` [OAB-3, 4-[(1,1,4,4,5,5,8,8-octamethyl-1,2,3,4,5,6,7,8-octahydro-9-anthryl)carbamoyl] phenylcarbamoyl-1-morpholine] are 1.71 ± 5.44% and -0.89 ± 3.47%.
On to `CC1(C)CCC(C)(C)c2c1cc1c(c2NC(=O)c2ccc(NC(=O)Nc3ccccc3N)cc2)C(C)(C)CCC1(C)C` [OAB-4, 1-(2-aminophenyl)-3-{4-[(1,1,4,4,5,5,8,8-octamethyl-1,2,3,4,5,6,7,8-octahydro-9-anthryl)carbamoyl]phenyl} urea], for which the inhibition at 10 µM in assay [1] (10 μM, 48 h, Mean ± SE) came out at 15.4 ± 1.16%; in assay [2] (setting [3]), 34 ± 0.93%.
In the case of `CC1(C)CCC(C)(C)c2c1cc1c(c2NC(=O)c2ccc(C(=O)NO)cc2)C(C)(C)CCC1(C)C` [OAA3, N-hydroxy-4-[(1,1,4,4,5,5,8,8-octamethyl-1,2,3,4,5,6,7,8-octahydro-9-anthryl)carbamoyl] benzamide], the inhibition at 10 µM came to 4.79 ± 6.65% in assay [1] (10 μM, 48 h, Mean ± SE) and 11.3 ± 0.46% in assay [2] (setting [3]).
For `CC1(C)CCC(C)(C)c2c1cc1c(c2NC(=O)c2ccc(NC(=O)NCCCO)cc2)C(C)(C)CCC1(C)C` [OAB-18, 1-(3-hydroxy) propyl-3-{4-[(1,1,4,4,5,5,8,8-octamethyl-1,2,3,4,5,6,7,8-octahydro-9-anthryl)carbamoyl]phenyl} urea], the inhibition at 10 µM in assay [1] (10 μM, 48 h, Mean ± SE) is 2.47 ± 2.64%; in assay [2] (setting [3]), 4.32 ± 1.29%.
As to `CC1(C)CCC(C)(C)c2c1cc1c(c2NC(=O)c2ccc(NC(=O)NO)cc2)C(C)(C)CCC1(C)C` [OAB-15, 1-hydroxy-3-{4-[(1,1,4,4,5,5,8,8-octamethyl-1,2,3,4,5,6,7,8-octahydro-9-anthryl)carbamoyl]phenyl} urea], the inhibition at 10 µM in assay [1] (10 μM, 48 h, Mean ± SE) was 0.59 ± 1.44%; in assay [2] (setting [3]) it was 2.3 ± 3.26%.
As to `CCOC(=O)Nc1ccc(C(=O)Nc2c3c(cc4c2C(C)(C)CCC4(C)C)C(C)(C)CCC3(C)C)cc1` [OAB-2, 4-[(1,1,4,4,5,5,8,8-octamethyl-1,2,3,4,5,6,7,8-octahydro-9-anthryl)carbamoyl] ethyl phenylcarbamate], the inhibition at 10 µM in assay [1] amounted to 4.51 ± 1.8%; in assay [2] (HuT-102, read-out: Inhibitive rate (%) against Hut102 cells), 6.58 ± 1.51%.
Consider `CC1(C)CCC(C)(C)c2c1cc1c(c2NC(=O)c2ccc(C(=O)Nc3ccccc3N)cc2)C(C)(C)CCC1(C)C` [OAA-4, N-(2-aminophenyl)-4-[(1,1,4,4,5,5,8,8-octamethyl-1,2,3,4,5,6,7,8-octahydro-9-anthryl)carbamoyl] benzamide], for which the inhibition at 10 µM was found to be 12.5 ± 1.32% in assay [1] (10 μM, 48 h, Mean ± SE) and 30.3 ± 0.7% in assay [2] (setting [3]).
As for `CC1(C)CCC(C)(C)c2c1cc1c(c2NC(=O)c2ccc(NC(=O)Nc3ccccc3O)cc2)C(C)(C)CCC1(C)C` [OAB-10, 1-(2-hydroxyphenyl)-3-{4-[(1,1,4,4,5,5,8,8-octamethyl-1,2,3,4,5,6,7,8-octahydro-9-anthryl)carbamoyl]phenyl} urea], the inhibition at 10 µM in assay [1] (10 μM, 48 h, Mean ± SE) came to 7.21 ± 0.96%; in assay [2] (setting [3]), 17.1 ± 0.93%.
For `CC1(C)CCC(C)(C)c2c1cc1c(c2NC(=O)c2ccc(N)cc2)C(C)(C)CCC1(C)C` [OAB-1, 4[(1,1,4,4,5,5,8,8-octamethyl-1,2,3,4,5,6,7,8-octahydro-9-anthryl)carbamoyl] aniline], in that order: 5.95 ± 2.98% and 5.43 ± 2.54%.
Consider `CC1(C)CCC(C)(C)c2c1cc1c(c2NC(=O)c2ccc(NC(=O)N3CCC(C(=O)O)CC3)cc2)C(C)(C)CCC1(C)C` [OAB-9, N-{4-[(1,1,4,4,5,5,8,8-octamethyl-1,2,3,4,5,6,7,8-octahydro-9-anthryl)carbamoyl]phenylcarbamoyl}-4-piperidinyl Formic Acid], for which the inhibition at 10 µM is 8.03 ± 1.07% in assay [1] (10 μM, 48 h, Mean ± SE) and -0.3 ± 1.13% in assay [2] (setting [3]).
On to `CC1(C)CCC(C)(C)c2c1cc1c(c2NC(=O)c2ccc(C(=O)Nc3ccccc3O)cc2)C(C)(C)CCC1(C)C` [OAA-12, N-(2-hydroxyphenyl)-4[(1,1,4,4,5,5,8,8-octamethyl-1,2,3,4,5,6,7,8-octahydro-9-anthryl)carbamoyl] benzamide], for which the inhibition at 10 µM in assay [2] (setting [3]) worked out at 25.1 ± 0.65%.
